Results reported in publication PMC6949113, “Preclinical evaluation of AT-527, a novel guanosine nucleotide prodrug with potent, pan-genotypic activity against hepatitis C virus” (PLoS ONE, 2020).

Key:
[1] = Rat PK study, liver and heart tissue levels; assay type: in vivo, Sprague-Dawley rat; conditions: 4 h after oral AT-527 500 mg/kg
Description: Rat pharmacokinetic (PK) study. Sprague-Dawley rats were obtained from SLAC Laboratory Animal Co., Ltd. (Shanghai, China), group housed (during the 3-day acclimation period) or individually housed (during the study) and provided ad libitum access to purified (reverse osmosis; RO) water and food except when fasted overnight prior to administration of test article, 4 h after which access to food was restored. Two groups of five rats (single sex/group) were administered a single dose of 500 mg/kg AT-527, suspended in 0.5% CMC-Na and 0.5% Tween 80, via nasogastric gavage followed by a vehicle flush of 3 mL (about 3 times the nasogastric tube volume). This dosage was selected because it was close to the anticipated highest dose to be used in a repeated oral dose toxicity study and would permit accurate assessments of plasma concentrations of metabolites. Blood samples (200 μL) were collected via the saphenous vein using manual restraint at 0.25, 0.5, 1, 2, 4, 6, 8, 10, 12, 24, 48 and 72 h post dose from three animals per sex, and at 0.25, 0.5, 1, 2 and 4 h post dose from two animals per sex. Blood samples were transferred to tubes containing 4 μL 0.5 M dipotassium ethylenediaminetetraacetic acid (K2EDTA) and 10 μL dichlorvos (2 mg/mL) to prevent coagulation and inhibit esterase activity, respectively, mixed and centrifuged (3000 x g, 10 min, 2–8°C) to prepare plasma samples which were quickly frozen on dry ice and stored at ≤ -80°C until LC-MS/MS analysis. […] After the 4-h blood collection, two rats per group were euthanized by CO2 inhalation followed by rapid excision and snap-freezing of the heart and liver in liquid nitrogen. The frozen organs were broken into small pieces and approximately 0.5 g of each tissue was homogenized in 5 volumes (w/v) pre-chilled homogenization solution (30% 268 mM EDTA adjusted to pH 7.2–7.4 with potassium hydroxide in MeOH) in a dry ice-ethanol bath. […]

[2] = target: T1, human DNA polymerase γ (Homo sapiens, UniProt P54098); test: Human DNA polymerase inhibition assay, γ; assay type: biochemical
T1 construct: purchased CHIMERx (Madison, WI)
Description: The polymerases were purchased from CHIMERx (Madison, WI). Inhibition of DNA polymerase α activity was assayed in microtiter plates in 20 mM Tris-HCl, pH 8, 5 mM Mg acetate, 0.3 mg/mL BSA, 1mM DTT, 0.1 mM spermine, 0.05 mM dCTP, dTTP and dATP, 10 μCi ^32P-α-dGTP (800 Ci/mmol), 20 μg activated calf thymus DNA and the test compound at indicated concentrations. The DNA polymerase β and γ reaction mixture contained 50 mM Tris-HCl, pH 8.7, KCl (10 mM for β and 100 mM for γ), 10 mM MgCl2, 0.4 mg/mL BSA, 1mM DTT, 15% glycerol, 0.05 mM dCTP, dTTP and dATP, 10 μCi ^32P-α-dGTP (800 Ci/mmol), 20 μg activated calf thymus DNA and test compound at the indicated concentrations. For each assay, samples were run in triplicate, and positive controls were included. The enzyme reactions were allowed to proceed for 30 min at 37 °C followed by transfer onto glass-fiber filter plates and subsequent precipitation with 10% trichloroacetic acid (TCA). Plates were washed five times with 5% TCA, once with 95% ethanol and dried. The radioactive content of each filter was measured and used to determine the extent of inhibition of each polymerase.

T1 sequence (P54098 whole entry): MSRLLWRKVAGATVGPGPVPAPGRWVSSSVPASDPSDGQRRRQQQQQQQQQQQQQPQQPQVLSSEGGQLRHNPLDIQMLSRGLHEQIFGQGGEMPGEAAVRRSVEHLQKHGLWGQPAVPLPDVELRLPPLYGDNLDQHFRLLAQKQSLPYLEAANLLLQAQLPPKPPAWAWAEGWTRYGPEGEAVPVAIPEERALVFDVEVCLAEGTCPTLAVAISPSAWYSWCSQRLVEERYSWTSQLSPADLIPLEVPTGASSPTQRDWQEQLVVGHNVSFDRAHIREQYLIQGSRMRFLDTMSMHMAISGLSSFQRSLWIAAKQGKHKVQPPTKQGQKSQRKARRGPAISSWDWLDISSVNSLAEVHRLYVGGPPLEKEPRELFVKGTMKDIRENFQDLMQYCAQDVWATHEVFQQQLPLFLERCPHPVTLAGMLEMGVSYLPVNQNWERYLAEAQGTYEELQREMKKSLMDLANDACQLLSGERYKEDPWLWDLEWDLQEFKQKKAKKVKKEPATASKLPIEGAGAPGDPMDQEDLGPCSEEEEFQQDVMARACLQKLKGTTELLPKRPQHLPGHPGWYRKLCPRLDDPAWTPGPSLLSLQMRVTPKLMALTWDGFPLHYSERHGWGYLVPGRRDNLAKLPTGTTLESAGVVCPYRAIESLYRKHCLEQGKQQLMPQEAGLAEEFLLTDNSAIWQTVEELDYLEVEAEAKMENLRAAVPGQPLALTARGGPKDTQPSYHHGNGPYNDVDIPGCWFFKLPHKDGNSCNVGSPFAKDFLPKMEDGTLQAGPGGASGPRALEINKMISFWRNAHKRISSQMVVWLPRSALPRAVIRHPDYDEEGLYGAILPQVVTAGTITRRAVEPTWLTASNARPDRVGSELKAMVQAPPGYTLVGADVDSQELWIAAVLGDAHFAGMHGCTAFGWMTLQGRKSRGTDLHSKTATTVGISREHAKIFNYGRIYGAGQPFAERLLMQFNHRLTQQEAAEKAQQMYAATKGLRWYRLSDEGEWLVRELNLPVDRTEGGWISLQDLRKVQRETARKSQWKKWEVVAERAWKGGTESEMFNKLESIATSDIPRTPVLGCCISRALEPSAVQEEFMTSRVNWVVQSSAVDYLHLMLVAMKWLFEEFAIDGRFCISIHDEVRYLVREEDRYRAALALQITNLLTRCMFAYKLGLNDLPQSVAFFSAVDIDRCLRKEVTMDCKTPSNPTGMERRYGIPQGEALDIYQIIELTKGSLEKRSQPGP

With C[C@@]1(F)[C@H](O)[C@@H](COP(=O)(O)OP(=O)(O)OP(=O)(O)O)O[C@H]1n1cnc2c(=O)[nH]c(N)nc21 [AT-9010] the “fold higher in liver than in heart” value [1] was 87 fold, the mean heart concentration [1] was 80 ± 41 pmol/g and the mean liver concentration [1] was 6974 ± 2844 pmol/g. For the same compound, the IC50 [2] was over 100 µM.
